According to PubChem BioAssay AID2060900 (Molecular Pharmacology Branch, DTP, NCI, 2025):

Tested on: 521955-158-R2-J5-PDC complex spheroids, viability
Test: Anticancer human tumor 521955-158-R2-J5-PDC patient-derived pancreatic carcinoma cell line growth inhibition [RAS]
Conditions: for IC50: curve of first compound; for viability, T/C: stronger effect = lower value; active = viability on the fitted dose curve at most 10% of control; inactive = the rest
Outline: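 Agents were tested in combination matrices in half-log decrements from a top concentration at or near clinical Cmax (10 microM if undetermined). Targets were multi-cell spheroids of tumour lines plus HUVEC and MSC stromal cells.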
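Also: compound exposure lasted seven days before the viability read.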
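For viability, T/C in this document: spheroids also contain HUVEC endothelial cells and mesenchymal stem cells as stroma.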

C[C@@H](NC(=O)c1ncnc(N)c1Cl)c1ncc(C(=O)Nc2cc(C(F)(F)F)c(Cl)cn2)s1 + CCn1c(-c2cccnc2C(C)OC)c2c3cc(ccc31)N1CCOC(CC(NC(=O)C(C(C)C)N(C)C(=O)C3(F)CCN(C(=O)C#CC(C)(C)N(C)C)CC3)C(=O)N3CCCC(N3)C(=O)OCC(C)(C)C2)C1
1.51 µM: IC50 (second compound 0.3 µM)
5.93 µM: IC50 (second compound 0.000949 µM)
inactive: viability, T/C (second compound 0.000949 µM, first compound 0.0316 µM) 137% | viability, T/C (second compound 0.000949 µM, first compound 0.1 µM) 100% | viability, T/C (second compound 0.000949 µM, first compound 0.316 µM) 84.3% | viability, T/C (second compound 0.000949 µM, first compound 1 µM) 70.1% | viability, T/C (second compound 0.000949 µM, first compound 3.16 µM) 55.1% | viability, T/C (second compound 0.000949 µM, first compound 10 µM) 53.1% | viability, T/C (second compound 0.003 µM, first compound 0.0316 µM) 111% | viability, T/C (second compound 0.003 µM, first compound 0.1 µM) 121% | viability, T/C (second compound 0.003 µM, first compound 0.316 µM) 85.6% | viability, T/C (second compound 0.003 µM, first compound 1 µM) 73.2% | viability, T/C (second compound 0.003 µM, first compound 3.16 µM) 64.2% | viability, T/C (second compound 0.003 µM, first compound 10 µM) 56.1% | viability, T/C (second compound 0.00949 µM, first compound 0.0316 µM) 118% | viability, T/C (second compound 0.00949 µM, first compound 0.1 µM) 94.8% | viability, T/C (second compound 0.00949 µM, first compound 0.316 µM) 89% | viability, T/C (second compound 0.00949 µM, first compound 1 µM) 60.1% | viability, T/C (second compound 0.00949 µM, first compound 3.16 µM) 70.7% | viability, T/C (second compound 0.00949 µM, first compound 10 µM) 63.6% | viability, T/C (second compound 0.03 µM, first compound 0.0316 µM) 91.1% | viability, T/C (second compound 0.03 µM, first compound 0.1 µM) 126% | viability, T/C (second compound 0.03 µM, first compound 0.316 µM) 69.1% | viability, T/C (second compound 0.03 µM, first compound 1 µM) 59.6% | viability, T/C (second compound 0.03 µM, first compound 3.16 µM) 68.6% | viability, T/C (second compound 0.03 µM, first compound 10 µM) 48% | viability, T/C (second compound 0.0949 µM, first compound 0.0316 µM) 122% | viability, T/C (second compound 0.0949 µM, first compound 0.1 µM) 99% | viability, T/C (second compound 0.0949 µM, first compound 0.316 µM) 79.6% | viability, T/C (second compound 0.0949 µM, first compound 1 µM) 56.7% | viability, T/C (second compound 0.0949 µM, first compound 3.16 µM) 60.4% | viability, T/C (second compound 0.0949 µM, first compound 10 µM) 58.8% | viability, T/C (second compound 0.3 µM, first compound 0.0316 µM) 131% | viability, T/C (second compound 0.3 µM, first compound 0.1 µM) 98% | viability, T/C (second compound 0.3 µM, first compound 0.316 µM) 71.6% | viability, T/C (second compound 0.3 µM, first compound 1 µM) 46.8% | viability, T/C (second compound 0.3 µM, first compound 3.16 µM) 48.1% | viability, T/C (second compound 0.3 µM, first compound 10 µM) 46.1%
10 µM: IC50 (second compound 0.03 µM)
> 10 µM: IC50 (second compound 0.003 µM) | IC50 (second compound 0.00949 µM) | IC50 (second compound 0.0949 µM)

Cc1nc(N2CCC3(CC2)COC(C)C3N)c(CO)nc1Sc1ccnc(N)c1Cl (stereo unspecified) + C#Cc1c(F)ccc2cc(O)cc(-c3ncc4c(N5CC6CCC(C5)N6)nc(OCC56CCCN5CC(F)C6)nc4c3F)c12
active: viability, T/C (second compound 10 µM, first compound 10 µM) 5%
0.115 µM: IC50 (second compound 0.316 µM)
0.177 µM: IC50 (second compound 0.1 µM)
0.598 µM: IC50 (second compound 0.0316 µM)
inactive: viability, T/C (second compound 0.0316 µM, first compound 0.0316 µM) 50.1% | viability, T/C (second compound 0.0316 µM, first compound 0.1 µM) 63.7% | viability, T/C (second compound 0.0316 µM, first compound 0.316 µM) 60.6% | viability, T/C (second compound 0.0316 µM, first compound 1 µM) 43.5% | viability, T/C (second compound 0.0316 µM, first compound 3.16 µM) 42.3% | viability, T/C (second compound 0.0316 µM, first compound 10 µM) 37.4% | viability, T/C (second compound 0.1 µM, first compound 0.0316 µM) 61.1% | viability, T/C (second compound 0.1 µM, first compound 0.1 µM) 58.3% | viability, T/C (second compound 0.1 µM, first compound 0.316 µM) 41.9% | viability, T/C (second compound 0.1 µM, first compound 1 µM) 37.6% | viability, T/C (second compound 0.1 µM, first compound 3.16 µM) 39.7% | viability, T/C (second compound 0.1 µM, first compound 10 µM) 28.2% | viability, T/C (second compound 0.316 µM, first compound 0.0316 µM) 63.1% | viability, T/C (second compound 0.316 µM, first compound 0.1 µM) 46.2% | viability, T/C (second compound 0.316 µM, first compound 0.316 µM) 44.1% | viability, T/C (second compound 0.316 µM, first compound 1 µM) 37.7% | viability, T/C (second compound 0.316 µM, first compound 3.16 µM) 27.2% | viability, T/C (second compound 0.316 µM, first compound 10 µM) 24% | viability, T/C (second compound 1 µM, first compound 0.0316 µM) 45.3% | viability, T/C (second compound 1 µM, first compound 0.1 µM) 42.9% | viability, T/C (second compound 1 µM, first compound 0.316 µM) 39.3% | viability, T/C (second compound 1 µM, first compound 1 µM) 30.7% | viability, T/C (second compound 1 µM, first compound 3.16 µM) 33.2% | viability, T/C (second compound 1 µM, first compound 10 µM) 22.9% | viability, T/C (second compound 3.16 µM, first compound 0.0316 µM) 37.1% | viability, T/C (second compound 3.16 µM, first compound 0.1 µM) 39.7% | viability, T/C (second compound 3.16 µM, first compound 0.316 µM) 34.4% | viability, T/C (second compound 3.16 µM, first compound 1 µM) 28.3% | viability, T/C (second compound 3.16 µM, first compound 3.16 µM) 19% | viability, T/C (second compound 3.16 µM, first compound 10 µM) 20.1% | viability, T/C (second compound 10 µM, first compound 0.0316 µM) 48.7% | viability, T/C (second compound 10 µM, first compound 0.1 µM) 28.2% | viability, T/C (second compound 10 µM, first compound 0.316 µM) 21.3% | viability, T/C (second compound 10 µM, first compound 1 µM) 18.5% | viability, T/C (second compound 10 µM, first compound 3.16 µM) 13.7%
< 0.0316 µM: IC50 (second compound 1 µM) | IC50 (second compound 3.16 µM) | IC50 (second compound 10 µM)

CCc1c2c(nc3ccc(O)cc13)-c1cc3c(c(=O)n1C2)COC(=O)[C@]3(O)CC + C#Cc1c(F)ccc2cc(O)cc(-c3ncc4c(N5CC6CCC(C5)N6)nc(OCC56CCCN5CC(F)C6)nc4c3F)c12
active: viability, T/C (second compound 0.316 µM, first compound 0.3 µM) 8.89% | viability, T/C (second compound 3.16 µM, first compound 0.3 µM) 5.72%
< 0.000949 µM: IC50 (second compound 0.1 µM) | IC50 (second compound 1 µM) | IC50 (second compound 3.16 µM) | IC50 (second compound 10 µM)
inactive: viability, T/C (second compound 0.0316 µM, first compound 0.000949 µM) 68.1% | viability, T/C (second compound 0.0316 µM, first compound 0.003 µM) 40.9% | viability, T/C (second compound 0.0316 µM, first compound 0.00949 µM) 35.7% | viability, T/C (second compound 0.0316 µM, first compound 0.03 µM) 20.7% | viability, T/C (second compound 0.0316 µM, first compound 0.0949 µM) 15.3% | viability, T/C (second compound 0.0316 µM, first compound 0.3 µM) 9.62% | viability, T/C (second compound 0.1 µM, first compound 0.000949 µM) 43.4% | viability, T/C (second compound 0.1 µM, first compound 0.003 µM) 34.2% | viability, T/C (second compound 0.1 µM, first compound 0.00949 µM) 26.9% | viability, T/C (second compound 0.1 µM, first compound 0.03 µM) 22.5% | viability, T/C (second compound 0.1 µM, first compound 0.0949 µM) 11.4% | viability, T/C (second compound 0.1 µM, first compound 0.3 µM) 12.5% | viability, T/C (second compound 0.316 µM, first compound 0.000949 µM) 51.9% | viability, T/C (second compound 0.316 µM, first compound 0.003 µM) 39.5% | viability, T/C (second compound 0.316 µM, first compound 0.00949 µM) 23.8% | viability, T/C (second compound 0.316 µM, first compound 0.03 µM) 18.3% | viability, T/C (second compound 0.316 µM, first compound 0.0949 µM) 14.3% | viability, T/C (second compound 1 µM, first compound 0.000949 µM) 41.1% | viability, T/C (second compound 1 µM, first compound 0.003 µM) 36.1% | viability, T/C (second compound 1 µM, first compound 0.00949 µM) 18.4% | viability, T/C (second compound 1 µM, first compound 0.03 µM) 16.6% | viability, T/C (second compound 1 µM, first compound 0.0949 µM) 11.3% | viability, T/C (second compound 1 µM, first compound 0.3 µM) 10.6% | viability, T/C (second compound 3.16 µM, first compound 0.000949 µM) 41.4% | viability, T/C (second compound 3.16 µM, first compound 0.003 µM) 34.6% | viability, T/C (second compound 3.16 µM, first compound 0.00949 µM) 24.7% | viability, T/C (second compound 3.16 µM, first compound 0.03 µM) 15.8% | viability, T/C (second compound 3.16 µM, first compound 0.0949 µM) 12.8% | viability, T/C (second compound 10 µM, first compound 0.000949 µM) 30% | viability, T/C (second compound 10 µM, first compound 0.003 µM) 23% | viability, T/C (second compound 10 µM, first compound 0.00949 µM) 16.8% | viability, T/C (second compound 10 µM, first compound 0.03 µM) 15.5% | viability, T/C (second compound 10 µM, first compound 0.0949 µM) 11.2% | viability, T/C (second compound 10 µM, first compound 0.3 µM) 11.8%
0.00236 µM: IC50 (second compound 0.0316 µM)
0.00113 µM: IC50 (second compound 0.316 µM)
